Measurements taken from PMC4203866, “Identification of plant-derived natural products as potential inhibitors of the Mycobacterium tuberculosis proteasome” (BMC Complementary and Alternative Medicine, 2014).

Target: T1, Mtb proteasome (Mycobacterium tuberculosis, UniProt P9WHT9)
T1 construct: Proteasome activity of the supernatants was assessed; endogenous in cells; host or cells: Mycobacterium tuberculosis H37Ra (crude lysate supernatant)
Assay: biochemical
Conditions: for inhibition at 200 µM: 0.5 h, read-out: IA: inhibitory activity of Mtb proteasome

T1 sequence (P9WHT9 58-291): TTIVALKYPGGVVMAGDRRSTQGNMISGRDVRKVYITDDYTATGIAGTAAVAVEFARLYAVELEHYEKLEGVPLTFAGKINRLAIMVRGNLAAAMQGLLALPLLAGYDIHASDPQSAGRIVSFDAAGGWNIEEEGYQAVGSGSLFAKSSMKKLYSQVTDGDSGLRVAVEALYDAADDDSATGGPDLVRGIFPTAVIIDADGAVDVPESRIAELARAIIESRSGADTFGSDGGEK
T1 sequence (P9WHU1 whole entry partner): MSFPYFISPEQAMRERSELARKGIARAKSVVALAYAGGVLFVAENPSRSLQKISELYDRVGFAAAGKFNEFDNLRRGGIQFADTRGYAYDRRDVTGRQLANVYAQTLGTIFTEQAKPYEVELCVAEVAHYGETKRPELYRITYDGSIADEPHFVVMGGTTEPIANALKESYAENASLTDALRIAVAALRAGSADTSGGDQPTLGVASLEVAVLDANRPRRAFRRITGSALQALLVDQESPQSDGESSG

Compound | inhibition at 200 µM [%] | IA: inhibitory activity of Mtb proteasome [%] | IC50 [µM]
N#C[C@H](O[C@@H]1O[C@H](CO[C@@H]2O[C@H](CO)[C@@H](O)[C@H](O)[C@H]2O)[C@@H](O)[C@H](O)[C@H]1O)c1ccccc1 [amygdalin] | 1.87 | – | –
C[C@@]12C[C@@]3(O)O[C@@H](O1)[C@]1(COC(=O)c4ccccc4)[C@H]3C[C@@]12O[C@@H]1O[C@H](CO)[C@@H](O)[C@H](O)[C@H]1O [paeoniflorin] | 3.05 | – | –
O=C1CCC[C@@H]2[C@H]3CCCN4CCC[C@H](CN12)[C@@H]34 [sophoridine] | 11.8 | – | –
OC[C@H]1O[C@@H](Oc2cc(O)cc(/C=C/c3ccc(O)cc3)c2)[C@H](O)[C@@H](O)[C@@H]1O [polydatin] | 0 | – | –
COc1ccc([C@H]2OC[C@H]3[C@@H]2CO[C@H]3c2ccc(O[C@@H]3O[C@H](CO)[C@@H](O)[C@H](O)[C@H]3O)c(OC)c2)cc1OC [forsythin] | – | 20.02 | –
martin hydrochloride | – | 43.66 | –
COc1cc2c(c(OC)c1OC)-c1c(cc(OC)c(OC)c1OC)C[C@H](C)[C@H](C)C2 [deoxyschizandrin] | – | 23.86 | –
O=c1c(O)c(-c2ccc(O)cc2)oc2cc(O)cc(O)c12 [kaempferol] | > 65 | – | 107
madecassoside | – | 0.00 | –
O=C1CCC[C@@H]2[C@H]3CCCN4CCC[C@@H](CN12)[C@@H]34 [matrine] | 23.5 | – | –
O=c1ccc2ccc(O)cc2o1 [umbelliferone] | 0 | – | –
O=C1c2cccc(O)c2C(=O)c2c(O)cccc21 [1,8-dihydroxyanthraquinone] | 36.3 | – | –
C=C(C)[C@@H]1CC[C@]2(CO)CC[C@]3(C)[C@H](CC[C@@H]4[C@@]5(C)CC[C@H](O)C(C)(C)[C@@H]5CC[C@]43C)[C@@H]12 [betulinol] | – | 6.52 | –
COc1cc2ccc(=O)oc2c(O[C@@H]2O[C@H](CO)[C@@H](O)[C@H](O)[C@H]2O)c1O [fraxin] | – | 0.00 | –
COc1c(O)cc2oc(-c3ccc(O)cc3)cc(=O)c2c1O [hispidulin] | > 65 | – | 58.3
COc1ccc(-c2cc(=O)c3c(O)cc(O)cc3o2)cc1O [diosmetin] | 0 | – | –
CC(C)(O)[C@H]1CC[C@@](C)([C@H]2[C@@H](O)C[C@@]3(C)[C@@H]4C[C@H](O[C@@H]5O[C@H](CO)[C@@H](O)[C@H](O)[C@H]5O)[C@H]5C(C)(C)[C@@H](O[C@@H]6OC[C@@H](O)[C@H](O)[C@H]6O)CC[C@@]56C[C@@]46CC[C@]23C)O1 [astragaloside A] | – | 23.59 | –
O=c1c(O)c(-c2ccc(O)c(O)c2)oc2cc(O)cc(O)c12 [quercetin] | > 65 | – | –
O=C1c2ccccc2C(=O)c2c1ccc(O)c2O [alizarin] | 0 | – | –
O=c1ccc2ccccc2o1 [coumarin] | 0 | – | –
CC(C)=CC[C@H](O)C1=CC(=O)c2c(O)ccc(O)c2C1=O [alkannin] | 52.4 | – | –
O=c1c(-c2ccc(O)cc2)coc2cc(O)ccc12 [daidzein] | 0 | – | –
O=c1oc2c(O)c(O)cc3c(=O)oc4c(O)c(O)cc1c4c23 [gallogen] | – | 62.50 | –
C=C1C[C@@]2(O)O[C@@]3(C[C@H]2C(C)C)[C@@H](C)CC[C@@H]13 [curcumol] | – | 34.66 | –
COc1c(O)cc(O)c2c(=O)cc(-c3ccccc3)oc12 [wogonin] | 54 | – | –
C=C[C@@H]1C2=CCOC(=O)C2=CO[C@H]1O[C@@H]1O[C@H](CO)[C@@H](O)[C@H](O)[C@H]1O [gentiopicroside] | 0 | – | –
COc1ccc2ccc(=O)oc2c1CC=C(C)C [osthole] | 0 | – | –
C=C[C@H]1[C@H](O[C@@H]2O[C@H](CO)[C@@H](O)[C@H](O)[C@H]2O)OC=C2C(=O)OCC[C@]21O [swertiamain] | – | 14.39 | –
